Assay results taken from patent US9108950B2, “1-pyrazolyl-3-(4-((2-anilinopyrimidin-4-yl)oxy)napththalen-1-yl) ureas as p38 MAP kinase inhibitors” (Respivert Ltd., priority 2011, dated 2015).

Columns and labels:
[1] = test system: LPS-induced neutrophil accumulation; test: LPS-induced neutrophil accumulation in mice; format: in vivo, Balb/c mice; conditions: 1.75 μg/mouse
Method: […] At T=0, mice were placed into an exposure chamber and exposed to LPS (7.0 mL, 0.5 mg/mL solution in PBS) for 30 min). After a further 8 hr the animals were anesthetized, their tracheas cannulated and BALF extracted by infusing and then withdrawing from their lungs 1.0 mL of PBS via the tracheal catheter. Total and differential white cell counts in the BALF samples were measured using a Neubaur haemocytometer. Cytospin smears of the BALF samples were prepared by centrifugation at 200 rpm for 5 min at RT and stained using a DiffQuik stain system (Dade Behring). Cells were counted using oil immersion microscopy. Data for neutrophil numbers in BAL are shown as mean±S.E.M. (standard error of the mean). The percentage inhibition of neutrophil accumulation was calculated for each treatment relative to vehicle treatment.

[2] = test system: Cigarette Smoke Model; test: Cigarette smoke model; format: in vivo, A/J mice; conditions: 1.75 μg/mouse (35 μL, bid, i.n.)
Method: A/J mice (males, 5 weeks old) were exposed to cigarette smoke (4% cigarette smoke, diluted with air) for 30 min/day for 11 days using a Tobacco Smoke Inhalation Experiment System for small animals (Model SIS-CS; Sibata Scientific Technology, Tokyo, Japan). […] At 12 hr after the last dosing, each of the animals was anesthetized, the trachea cannulated and bronchoalveolar lavage fluid (BALF) was collected. The numbers of alveolar macrophages and neutrophils were determined by FACS analysis (EPICS® ALTRA II, Beckman Coulter, Inc., Fullerton, Calif., USA) using anti-mouse MOMA2 antibody (macrophage) or anti-mouse 7/4 antibody (neutrophil). BALF was centrifuged and the supernatant was collected. The level of keratinocyte chemoattractant (KC; CXCL1) in BALF was quantitated using a Quentikine® mouse KC ELISA kit (R&D systems, Inc., Minneapolis, Minn., USA).

[3] = test system: Differentiated U937 cells; test: Cell viability: MTT assay; format: cell-based, human; conditions: 1 μg/mL
Method: Differentiated U937 cells were pre-incubated with each test compound (final concentration 1 μg/mL or 10 μg/mL in 200 μL media indicated below) under two protocols: the first for 4 hr in 5% FCS RPMI1640 media and the second in 10% FCS RPMI1640 media for 24 h. The supernatant was replaced with new media (200 μL) and MTT stock solution (10 μL, 5 mg/mL) was added to each well. After incubation for 1 hr the media were removed, DMSO (200 μL) was added to each well and the plates were shaken lightly for 1 hr prior to reading the absorbance at 550 nm. The percentage loss of cell viability was calculated for each well relative to vehicle (0.5% DMSO) treatment. Consequently an apparent increase in cell viability for drug treatment relative to vehicle is tabulated as a negative percentage.

## CCC(=O)O[C@]1(C(=O)SCF)[C@H](C)C[C@H]2[C@@H]3C[C@H](F)C4=CC(=O)C=C[C@]4(C)[C@@]3(F)[C@@H](O)C[C@@]21C [Fluticasone Propionate, fluticasone propionate, reference compound]
[1]
  inhibition of LPS-induced neutrophil accumulation: > 80%
[2]
  macrophage accumulation into airways: did not inhibit
  neutrophil accumulation into airways: did not inhibit

## COCC(=O)Nc1cc(Oc2ccc(NC(=O)Nc3cc(C(C)(C)C)nn3-c3ccc(C)cc3)c3ccccc23)ccn1 [Reference Compound, N-(4-(4-(3-(3-tert-butyl-1-p-tolyl-1H-pyrazol-5-yl)ureido)naphthalen-1-yloxy)pyridin-2-yl)-2-methoxyacetamide, reference compound]
[3]; 4 h
  MTT Assay Cell viability in d-U937 Cells: −ve (−ve and +ve indicate the value is below and above respectively, the no significant effect threshold defined as 30% inhibition at 1 μg/mL at the time point indicated.)
[3]; 24 h
  MTT Assay Cell viability in d-U937 Cells: +ve (−ve and +ve indicate the value is below and above respectively, the no significant effect threshold defined as 30% inhibition at 1 μg/mL at the time point indicated.)
